Results on 17 compounds are retold here after PubChem BioAssay AID256 (DTP/NCI, 2004).

Where “and” joins values, the source holds several entries; their conditions need not be identical. Identical values can stand only once. Toxic doses and inconclusive results are not listed.

This experiment has as its system CD2F1 mice, L1210 leukemia ip, survival T/C. The experiment is described as follows: NCI In Vivo Anticancer Drug Screen. Data for tumor model L1210 Leukemia (intraperitoneal) in CD2F1 (CDF1) mice. As to conditions: higher = longer survival. The method in brief: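 Tumor-bearing mice (transplanted tumor) were split into treated and vehicle control groups, and the measured endpoint of each treated group was divided by that of its vehicle controls.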

[1] abbreviates: endpoint: mean survival time, dose: 100.0 mg/kg/injection, schedule: Q01DX009 (ip), vehicle: saline with Tween-80.
Where [2] appears, read: endpoint: mean survival time, dose: 100.0 mg/kg/injection, schedule: Q04DX003 (ip), vehicle: saline.
The mark [3] stands for this setting: endpoint: mean survival time, dose: 200.0 mg/kg/injection, schedule: Q01DX009 (ip), vehicle: saline with Tween-80.
Setting [4] is: endpoint: mean survival time, dose: 400.0 mg/kg/injection, schedule: Q01DX009 (ip), vehicle: saline with Tween-80.
The mark [5] stands for this setting: endpoint: mean survival time, dose: 100.0 mg/kg/injection, schedule: Q04DX003 (ip), vehicle: saline with Tween-80.
The mark [6] stands for this setting: endpoint: mean survival time, dose: 200.0 mg/kg/injection, schedule: Q04DX003 (ip), vehicle: saline with Tween-80.
The mark [7] stands for this setting: endpoint: mean survival time, dose: 400.0 mg/kg/injection, schedule: Q04DX003 (ip), vehicle: saline with Tween-80.

With `Nc1ccccc1-c1n[nH]c2ccccc12`, the T/C was 110 % of control (endpoint: mean survival time, dose: 25.0 mg/kg/injection, schedule: Q04DX002 (ip), vehicle: saline with Tween-80); 103 % of control (endpoint: mean survival time, dose: 50.0 mg/kg/injection, schedule: Q04DX002 (ip), vehicle: saline with Tween-80); 103 % of control (endpoint: mean survival time, dose: 100.0 mg/kg/injection, schedule: Q04DX002 (ip), vehicle: saline with Tween-80); 100 % of control (endpoint: mean survival time, dose: 200.0 mg/kg/injection, schedule: Q04DX002 (ip), vehicle: saline with Tween-80).
As for `O=[N+]([O-])c1ccc(S(=O)(=O)F)c(Cl)c1`, the T/C reads like this: under setting [1], 100 % of control; under setting [2], 100 % of control; under setting [3], 100 % of control; (endpoint: mean survival time, dose: 200.0 mg/kg/injection, schedule: Q04DX003 (ip), vehicle: saline) 101 % of control; under setting [4], 100 % of control; (endpoint: mean survival time, dose: 400.0 mg/kg/injection, schedule: Q04DX003 (ip), vehicle: saline) 101 % of control.
As for `O=C1C(O)=C(c2ccccc2C(=O)O)C(=O)C(O)=C1c1ccccc1C(=O)O`, under setting [1], the T/C was 92 % of control.
On to `CCCCC(C(=O)OCC)C(=O)c1ccccc1` (stereo not drawn), for which the T/C runs as follows: under setting [5], 96 % of control; under setting [6], 94 % of control; under setting [7], 97 % of control.
`O=C(NCCCC1C2CCC(C2)C1CNC(=O)Nc1cccc(Cl)c1)Nc1cccc(Cl)c1` (stereo not drawn): the T/C reads like this: under setting [1], 93 % of control; under setting [3], 93 % of control; under setting [4], 89 % of control.
In the case of `O=[N+]([O-])c1ccc(O)c(N=Cc2ccccc2O)c1`, the T/C is, setting by setting: (endpoint: mean survival time, dose: 100.0 mg/kg/injection, schedule: Q04DX002 (ip), vehicle: Klucel (hydroxypropylcellulose) (HPC)) 105 % of control; (endpoint: mean survival time, dose: 200.0 mg/kg/injection, schedule: Q04DX002 (ip), vehicle: Klucel (hydroxypropylcellulose) (HPC)) 97 % of control; (endpoint: mean survival time, dose: 400.0 mg/kg/injection, schedule: Q04DX002 (ip), vehicle: Klucel (hydroxypropylcellulose) (HPC)) 97 % of control.
On to `CCc1c(O)c2c(c(O)c1C(C)=O)C(=O)c1c(cc(O)c(C(=O)O)c1C(=O)O)C2=O`, for which the T/C is 108 % of control (endpoint: mean survival time, dose: 50.0 mg/kg/injection, schedule: Q01DX009 (ip), vehicle: saline) and 116 % of control (endpoint: mean survival time, dose: 100.0 mg/kg/injection, schedule: Q01DX009 (ip), vehicle: saline).
`CN1CC(O)(C(O)C(O)C(O)CO)SC1=S` (stereo not drawn): the T/C was 98 % of control (endpoint: mean survival time, dose: 100.0 mg/kg/injection, schedule: Q01DX009 (ip), vehicle: saline sonified); 100 % of control under setting [5]; 101 % of control (endpoint: mean survival time, dose: 200.0 mg/kg/injection, schedule: Q01DX009 (ip), vehicle: saline sonified); 93 % of control under setting [6]; 109 % of control (endpoint: mean survival time, dose: 400.0 mg/kg/injection, schedule: Q01DX009 (ip), vehicle: saline sonified); 89 % of control under setting [7].
Consider `CC1(C(=O)c2ccccc2)OC1c1ccccc1` (stereo not drawn), for which the T/C reads like this: (endpoint: mean survival time, dose: 100.0 mg/kg/injection, schedule: Q04DX003 (ip), vehicle: acetone) 103 % of control; (endpoint: mean survival time, dose: 200.0 mg/kg/injection, schedule: Q04DX003 (ip), vehicle: acetone) 103 % of control; (endpoint: mean survival time, dose: 400.0 mg/kg/injection, schedule: Q04DX003 (ip), vehicle: acetone) 98 % of control.
Take `O=NN(CCCl)C(=O)Oc1ccc(OC(=O)N(CCCl)N=O)cc1`: the T/C is, setting by setting: (endpoint: median survival time, dose: 3.12 mg/kg/injection, schedule: Q01DX009 (ip), vehicle: Klucel (hydroxypropylcellulose) (HPC)) 104 % of control; (endpoint: median survival time, dose: 6.25 mg/kg/injection, schedule: Q01DX009 (ip), vehicle: Klucel (hydroxypropylcellulose) (HPC)) 114 % of control; (endpoint: median survival time, dose: 12.5 mg/kg/injection, schedule: Q01DX009 (ip), vehicle: Klucel (hydroxypropylcellulose) (HPC)) 118 % of control; (endpoint: median survival time, dose: 25.0 mg/kg/injection, schedule: Q01DX009 (ip), vehicle: Klucel (hydroxypropylcellulose) (HPC)) 113 % of control; (endpoint: median survival time, dose: 50.0 mg/kg/injection, schedule: Q01DX009 (ip), vehicle: Klucel (hydroxypropylcellulose) (HPC)) 93 % of control.
As to `CCOCCN1CCN(CCCN2c3ccccc3Sc3ccc(C(F)(F)F)cc32)CC1`, the T/C by setting is: (endpoint: mean survival time, dose: 1.75 mg/kg/injection, schedule: Q01DX001 (ip), vehicle: water) 103 % of control; (endpoint: mean survival time, dose: 3.5 mg/kg/injection, schedule: Q01DX001 (ip), vehicle: water) 106 % of control; (endpoint: mean survival time, dose: 7.0 mg/kg/injection, schedule: Q01DX001 (ip), vehicle: water) 105 % of control; (endpoint: mean survival time, dose: 9.9 mg/kg/injection, schedule: Q01DX001 (ip), vehicle: water) 102 % of control; (endpoint: mean survival time, dose: 15.0 mg/kg/injection, schedule: Q01DX001 (ip), vehicle: water) 98 % of control; (endpoint: mean survival time, dose: 22.0 mg/kg/injection, schedule: Q01DX001 (ip), vehicle: water) 106 % of control. For the same compound, the T/C (endpoint: mean survival time, dose: 37.5 mg/kg/injection, schedule: Q04DX003 (ip), vehicle: saline) is 122 % of control.
Regarding `NC1CCCCC1N.O=S(=O)([O-])c1cccc(S(=O)(=O)[O-])c1.[Pt+4]`, the T/C (endpoint: median survival time, dose: 6.25 mg/kg/injection, schedule: Q04DX003 (ip), vehicle: saline with Tween-80) is 166 % of control; the T/C (endpoint: median survival time, dose: 12.5 mg/kg/injection, schedule: Q04DX003 (ip), vehicle: saline with Tween-80) was 237 % of control and 370 % of control; the T/C (endpoint: median survival time, dose: 25.0 mg/kg/injection, schedule: Q04DX003 (ip), vehicle: saline with Tween-80) is 296 % of control and 325 % of control.
In the case of `CN(C)c1ccc(/C=C2/CCCC/C2=N/O)cc1`, the T/C is, setting by setting: (endpoint: mean survival time, dose: 100.0 mg/kg/injection, schedule: Q04DX003 (ip), vehicle: Klucel (hydroxypropylcellulose) (HPC)) 102 % of control; (endpoint: mean survival time, dose: 200.0 mg/kg/injection, schedule: Q04DX003 (ip), vehicle: Klucel (hydroxypropylcellulose) (HPC)) 94 % of control; (endpoint: mean survival time, dose: 400.0 mg/kg/injection, schedule: Q04DX003 (ip), vehicle: Klucel (hydroxypropylcellulose) (HPC)) 98 % of control.
Turning to `O=C1CN(CCN2CC(=O)N(CN3CCOCC3)C(=O)C2)CC(=O)N1CN1CCOCC1`, the T/C (endpoint: median survival time, dose: 12.5 mg/kg/injection, schedule: Q01DX009 (ip), vehicle: water) was 111 % of control; the T/C (endpoint: median survival time, dose: 25.0 mg/kg/injection, schedule: Q01DX009 (ip), vehicle: water) was 118 % of control; the T/C (endpoint: median survival time, dose: 50.0 mg/kg/injection, schedule: Q01DX009 (ip), vehicle: water) was 164 % of control; the T/C (endpoint: median survival time, dose: 100.0 mg/kg/injection, schedule: Q01DX009 (ip), vehicle: water) was 181 % of control and 188 % of control; the T/C (endpoint: median survival time, dose: 200.0 mg/kg/injection, schedule: Q01DX009 (ip), vehicle: water) was 97 % of control and 111 % of control.
As to `COc1ccc(OCCOC(=O)Nc2ccc(Cl)cc2C)cc1`, the T/C reads like this: (endpoint: mean survival time, dose: 50.0 mg/kg/injection, schedule: Q01DX009 (ip), vehicle: saline with Tween-80) 90 % of control; under setting [1], 96 % of control; under setting [3], 100 % of control.
On to `CC(=O)Nc1ccc(CN(C)N=Nc2ccc(C(=O)O)cc2)cc1`, for which the T/C (endpoint: mean survival time, dose: 25.0 mg/kg/injection, schedule: Q01DX009 (ip), vehicle: water) is 95 % of control; the T/C (endpoint: mean survival time, dose: 50.0 mg/kg/injection, schedule: Q01DX009 (ip), vehicle: water) is 97 % of control; the T/C (endpoint: mean survival time, dose: 100.0 mg/kg/injection, schedule: Q01DX009 (ip), vehicle: water) was 106 % of control; the T/C (endpoint: mean survival time, dose: 200.0 mg/kg/injection, schedule: Q01DX009 (ip), vehicle: water) was 86 % of control; the T/C (endpoint: mean survival time, dose: 400.0 mg/kg/injection, schedule: Q01DX009 (ip), vehicle: water) was 95 % of control.
For `[Cl][Pt+2][Cl].[NH-]c1ccccc1-c1ccccc1[NH-]`, the T/C by setting is: (endpoint: mean survival time, dose: 3.13 mg/kg/injection, schedule: Q04DX003 (ip), vehicle: saline) 104 % of control; (endpoint: mean survival time, dose: 6.25 mg/kg/injection, schedule: Q04DX003 (ip), vehicle: saline) 109 % of control; (endpoint: mean survival time, dose: 12.5 mg/kg/injection, schedule: Q04DX003 (ip), vehicle: saline) 120 % of control; (endpoint: mean survival time, dose: 25.0 mg/kg/injection, schedule: Q04DX003 (ip), vehicle: saline) 113 % of control; (endpoint: mean survival time, dose: 50.0 mg/kg/injection, schedule: Q04DX003 (ip), vehicle: saline) 109 % of control; under setting [2], 94 % of control.
